In US20230228744A1, “DRY EYE DISEASE BIOMARKERS AND THEIR USE FOR TREATMENT” (Aldeyra Therapeutics, Inc., priority 2020, published 2023):
Entries after “also recorded” stand apart in the source; their conditions may differ.

Test system: malondialdehyde (MDA) adducts in tears
Assay: Phase 2a clinical study, MDA adduct competitive ELISA in tears
Type: in vivo, human
Conditions: 28 days (4 weeks) of treatment, pooled reproxalap groups
Description: The study was to assess levels of malondialdehyde (MDA) adducts in tears collected from subjects with dry eye disease enrolled in a Phase 2a, randomized, double-masked, clinical study to assess the safety, tolerability, and pharmacodynamic activity of ADX-102 ophthalmic solution in subjects with dry eye diseases, also referred to herein as dry eye syndrome (DES).
Tears were collected during Visit 1, prior to treatment, and during Visit 3, following four weeks of treatment. Treatment groups consisted of ADX-102 Ophthalmic Solution (0.5%), ADX-102 Ophthalmic Solution (0.1%), and ADX-102 Ophthalmic Lipid Solution (0.5%). […]
The assay is a competitive ELISA. […] The plate is read in a microplate reader at 450 nm. The assay OD reading decreases with increasing MDA adducts in the samples, as the adsorbed MDA competes for binding to the MDA antibody with MDA adducts in the test sample. […]
DES Study Samples. Based on the results of the pilot assay, a 1:60 dilution was determined to maximize the likelihood of the OD values falling within the linear portion of the standard curve, and thus provide the most accurate results. All tear samples from subjects (0.5% ADX-102 Ophthalmic Solution) and (0.1% ADX-102 Ophthalmic Solution) were analyzed, but results from some tear samples were excluded from the data analysis due to contamination with ocular staining dye in the Visit 3 samples. […]

Structure (SMILES): CC(C)(O)c1nc2ccc(Cl)cc2cc1N [reproxalap, Reproxalap]
- tear MDA adduct / RASP levels after treatment relative to baseline (pooled groups): reduction in tear RASP levels; also recorded: statistically lower
